# Measured values as given in US9796686B2, “Antibacterial quinazoline-4(3H)-one derivatives” (priority 2014, dated 2017).
# Structures can show the parent of a compound that is named as a salt. Where two headings read alike, the source gives them in different places.
# Legend:
# Assay in all cases: Bacterial growth minimal inhibitory concentration, microdilution in cation-adjusted Mueller-Hinton Broth (CLSI M7-A7)
# Assay type in all cases: cell-based
# [1] = test system: E. coli ATCC25922; conditions: Escherichia coli
# Procedure: (§1) Minimal Inhibitory Concentrations (MICs; mg/L) were determined in cation-adjusted Mueller-Hinton Broth by a microdilution method following the description given in “Methods for Dilution Antimicrobial Susceptibility Tests for Bacteria that Grow Aerobically”, Approved standard, 7th ed., Clinical and Laboratory Standards Institute (CLSI) Document M7-A7, Wayne, Pa., U.S.A. (2006).
# (§2) All Example compounds were tested against several Gram-positive and Gram-negative bacteria. […] K. pneumoniae A-651 is a multiply-resistant strain (in particular quinolone-resistant), while E. coli ATCC25922 and P. aeruginosa ATCC27853 are quinolone-sensitive strains.
# [2] = test system: K. pneumoniae A-651; conditions: Klebsiella pneumoniae
# Procedure: as §1, §2
# [3] = test system: P. aeruginosa ATCC27853; conditions: Pseudomonas aeruginosa
# Procedure: as §1, §2
# [4] = ATCC25922, quinolone-sensitive strain, read-out: MIC for E. coli ATCC25922
# [5] = A651, multiply-resistant strain (in particular quinolone-resistant), read-out: MIC for K. Pneumoniae A-651
# [6] = ATCC27853, quinolone-sensitive strain, read-out: MIC for P. aeruginosa ATCC27853
SMILES,"MIC [1, 4]","MIC [2, 5]","MIC [3, 6]","MIC ([1]; ATCC25922, read-out: MIC for E. coli ATCC25922)","MIC ([2]; A651, read-out: MIC for K. Pneumoniae A-651)","MIC ([3]; ATCC27853, read-out: MIC for P. aeruginosa ATCC27853)"
"C[C@@](CCn1cnc2cc(C#CC#CC3(C(O)CO)CC3)ccc2c1=O)(C(=O)NO)S(C)(=O)=O (mixture of isomers) [Example 19, (2R)-4-(7-((1-((RS)-1,2-dihydroxyethyl)cyclopropyl)buta-1,3-diyn-1-yl)-4-oxoquinazolin-3(4H)-yl)-N-hydroxy-2-methyl-2-(methylsulfonyl)butanamide]",8 mg/L,32 mg/L,8 mg/L,,,
"CC(CCn1cnc2cc(-c3ccc(OCCCN4CCOCC4)cc3F)ccc2c1=O)(C(=O)NO)S(C)(=O)=O.O=CO (racemic) [RE1, (RS)-4-(7-(2-fluoro-4-(3-morpholinopropoxy)phenyl)-4-oxoquinazolin-3(4H)-yl)-N-hydroxy-2-methyl-2-(methylsulfonyl)butanamide formate]",1 mg/L,2 mg/L,16 mg/L,,,
"CC(CCn1cnc2cc(-c3ccc(OCCCN4CCOCC4)cc3)ccc2c1=O)(C(=O)NO)S(C)(=O)=O.O=CO (racemic) [RE2, (RS)-N-hydroxy-2-methyl-2-(methylsulfonyl)-4-(7-(4-(3-morpholinopropoxy)phenyl)-4-oxoquinazolin-3(4H)-yl)butanamide formate]",1 mg/L,2 mg/L,8 mg/L,,,
"CC(CCn1cnc2cc(-c3ccc(OCCN4CCOCC4)cc3F)ccc2c1=O)(C(=O)NO)S(C)(=O)=O.O=CO (racemic) [RE3, (RS)-4-(7-(2-fluoro-4-(2-morpholinoethoxy)phenyl)-4-oxoquinazolin-3(4H)-yl)-N-hydroxy-2-methyl-2-(methylsulfonyl)butanamide formate]",2 mg/L,4 mg/L,16 mg/L,,,
"COc1cccc(-c2ccc3c(=O)n(CCC(C)(C(=O)NO)S(C)(=O)=O)cnc3c2)c1F (racemic) [RE4, (RS)-4-(7-(2-fluoro-3-methoxyphenyl)-4-oxoquinazolin-3(4H)-yl)-N-hydroxy-2-methyl-2-(methylsulfonyl)butanamide]",0.125 mg/L,≤ 0.063 mg/L,8 mg/L,,,
"COc1ccc(-c2ccc3c(=O)n(CCC(C)(C(=O)NO)S(C)(=O)=O)cnc3c2)cc1F (racemic) [RE5, (RS)-4-(7-(3-fluoro-4-methoxyphenyl)-4-oxoquinazolin-3(4H)-yl)-N-hydroxy-2-methyl-2-(methylsulfonyl)butanamide]",0.25 mg/L,1 mg/L,16 mg/L,,,
"CN(C)c1ccc(-c2ccc3c(=O)n(CCC(C)(C(=O)NO)S(C)(=O)=O)cnc3c2)cc1 (racemic) [RE6, (RS)-4-(7-(4-(dimethylamino)phenyl)-4-oxoquinazolin-3(4H)-yl)-N-hydroxy-2-methyl-2-(methylsulfonyl)butanamide]",0.125 mg/L,0.125 mg/L,16 mg/L,,,
"CC(CCn1cnc2cc(-c3ccc(CO)cc3)ccc2c1=O)(C(=O)NO)S(C)(=O)=O (racemic) [RE7, (RS)-N-hydroxy-4-(7-(4-(hydroxymethyl)phenyl)-4-oxoquinazolin-3(4H)-yl)-2-methyl-2-(methylsulfonyl)butanamide]",2 mg/L,8 mg/L,16 mg/L,,,
"CC(CCn1cnc2cc(-c3ccc(CN4CCOCC4)cc3)ccc2c1=O)(C(=O)NO)S(C)(=O)=O.O=CO (racemic) [RE8, (RS)-N-hydroxy-2-methyl-2-(methylsulfonyl)-4-(7-(4-(morpholinomethyl)phenyl)-4-oxoquinazolin-3(4H)-yl)butanamide formate]",1 mg/L,2 mg/L,16 mg/L,,,
"CC(CCn1cnc2cc(-c3ccccc3)c(F)cc2c1=O)(C(=O)NO)S(C)(=O)=O (racemic) [RE9, (RS)-4-(6-fluoro-4-oxo-7-phenylquinazolin-3(4H)-yl)-N-hydroxy-2-methyl-2-(methylsulfonyl)butanamide]",0.25 mg/L,≤ 0.063 mg/L,16 mg/L,,,
"CC(CCn1cnc2cc(C#Cc3ccc(CO)cc3)ccc2c1=O)(C(=O)NO)S(C)(=O)=O (racemic) [RE10, (RS)-N-hydroxy-4-(7-((4-(hydroxymethyl)phenyl)ethynyl)-4-oxoquinazolin-3(4H)-yl)-2-methyl-2-(methylsulfonyl)butanamide]",0.25 mg/L,1 mg/L,16 mg/L,,,
"CC(CCn1cnc2cc(C#Cc3ccc(C4(O)COC4)cc3)ccc2c1=O)(C(=O)NO)S(C)(=O)=O (racemic) [RE11, (RS)-N-hydroxy-4-(7-((4-(3-hydroxyoxetan-3-yl)phenyl)ethynyl)-4-oxoquinazolin-3(4H)-yl)-2-methyl-2-(methylsulfonyl)butanamide]",1 mg/L,1 mg/L,8 mg/L,,,
"CC(CCn1cnc2cc(C#Cc3ccc(CN4CCOCC4)cc3)ccc2c1=O)(C(=O)NO)S(C)(=O)=O.O=CO (racemic) [RE12, (RS)-N-hydroxy-2-methyl-2-(methylsulfonyl)-4-(7-((4-(morpholinomethyl)phenyl)ethynyl)-4-oxoquinazolin-3(4H)-yl)butanamide formate]",0.5 mg/L,0.5 mg/L,16 mg/L,,,
"C[C@@](CCn1cnc2cc(C#CC#C[C@@]3(F)C[C@@H]3CO)ccc2c1=O)(C(=O)NO)S(C)(=O)=O (relative stereo) [Example 30, (R)-4-(7-(((1R*,2R*)-1-fluoro-2-(hydroxymethyl)cyclopropyl)buta-1,3-diyn-1-yl)-4-oxoquinazolin-3(4H)-yl)-N-hydroxy-2-methyl-2-(methylsulfonyl)butanamide]",0.25 mg/L,0.5 mg/L,1 mg/L,,,
"C[C@@](CCn1cnc2cc(C#CC#C[C@H]3C[C@]3(F)CO)ccc2c1=O)(C(=O)NO)S(C)(=O)=O (relative stereo) [Example 33, (R)-4-(7-(((1R*,2R*)-2-fluoro-2-(hydroxymethyl)cyclopropyl)buta-1,3-diyn-1-yl)-4-oxoquinazolin-3(4H)-yl)-N-hydroxy-2-methyl-2-(methylsulfonyl)butanamide]",0.25 mg/L,0.5 mg/L,0.5 mg/L,,,
"COc1ccc(-c2ccc3c(=O)n(CC[C@](C)(C(=O)NO)S(C)(=O)=O)cnc3c2)c(F)c1 (single isomer, unassigned) [Example 1]",≤ 0.063 mg/L,0.25 mg/L,4 mg/L,,,
"C[C@@](CCn1cnc2cc(-c3ccccc3)ccc2c1=O)(C(=O)NO)S(C)(=O)=O (single isomer, unassigned) [Example 2]",0.25 mg/L,≤ 0.063 mg/L,8 mg/L,,,
"C[C@@](CCn1cnc2cc(C#CC#C[C@H]3C[C@@H]3CO)ccc2c1=O)(C(=O)NO)S(C)(=O)=O [Example 3, (R)-N-hydroxy-4-(7-(((1S,2S)-2-(hydroxymethyl)cyclopropyl)buta-1,3-diyn-1-yl)-4-oxoquinazolin-3(4H)-yl)-2-methyl-2-(methylsulfonyl)butanamide]",0.125 mg/L,0.5 mg/L,1 mg/L,,,
"C[C@@](CCn1cnc2cc(C#CC#CC3(O)COC3)ccc2c1=O)(C(=O)NO)S(C)(=O)=O [Example 4, (R)-N-hydroxy-4-(7-((3-hydroxyoxetan-3-yl)buta-1,3-diyn-1-yl)-4-oxoquinazolin-3(4H)-yl)-2-methyl-2-(methylsulfonyl)butanamide]",4 mg/L,4 mg/L,4 mg/L,,,
"C[C@@](CCn1cnc2cc(C#CC#C[C@@H]3C[C@H]3CO)ccc2c1=O)(C(=O)NO)S(C)(=O)=O [Example 5, (R)-N-hydroxy-4-(7-(((1R,2R)-2-(hydroxymethyl)cyclopropyl)buta-1,3-diyn-1-yl)-4-oxoquinazolin-3(4H)-yl)-2-methyl-2-(methylsulfonyl)butanamide]",≤ 0.063 mg/L,0.25 mg/L,1 mg/L,,,
"C[C@@](CCn1cnc2cc(C#CC#CC3(CO)CC3)ccc2c1=O)(C(=O)NO)S(C)(=O)=O [Example 6, (R)-N-hydroxy-4-(7-((1-(hydroxymethyl)cyclopropyl)buta-1,3-diyn-1-yl)-4-oxoquinazolin-3(4H)-yl)-2-methyl-2-(methylsulfonyl)butanamide]",0.25 mg/L,1 mg/L,2 mg/L,,,
"CC(C)(N)C#CC#Cc1ccc2c(=O)n(CC[C@](C)(C(=O)NO)S(C)(=O)=O)cnc2c1 [Example 7, (R)-4-(7-(5-amino-5-methylhexa-1,3-diyn-1-yl)-4-oxoquinazolin-3(4H)-yl)-N-hydroxy-2-methyl-2-(methylsulfonyl)butanamide formate]",,,,1 mg/L,4 mg/L,2 mg/L
"C[C@@](CCn1cnc2cc(C#Cc3ccc(CCO)cc3)ccc2c1=O)(C(=O)NO)S(C)(=O)=O [Example 8, (R)-N-hydroxy-4-(7-((4-(2-hydroxyethyl)phenyl)ethynyl)-4-oxoquinazolin-3(4H)-yl)-2-methyl-2-(methylsulfonyl)butanamide]",0.125 mg/L,0.25 mg/L,4 mg/L,,,
"C[C@@](CCn1cnc2cc(C#CC#C[C@H]3C[C@@H]3CO)c(F)cc2c1=O)(C(=O)NO)S(C)(=O)=O [Example 9, (R)-4-(6-fluoro-7-(((1S,2S)-2-(hydroxymethyl)cyclopropyl)buta-1,3-diyn-1-yl)-4-oxoquinazolin-3(4H)-yl)-N-hydroxy-2-methyl-2-(methylsulfonyl)butanamide]",0.125 mg/L,0.25 mg/L,1 mg/L,,,
